Test results published in the supplement of paper PMC6045584.
± gives the standard deviation of the averaged measurements.

Key:
[1] = compound: COc1ccc(-c2cc3c(C)nc(N)nc3n([C@H]3CC[C@H](OCCO)CC3)c2=O)cn1; assay: surviving fraction relative to DMSO-only wells; higher = less growth inhibition; settings: exposure time: 5 days
Procedure, shortened: (§1)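 Viability values are CellTiter-Glo luminescence readings, given as surviving fraction against the median of DMSO-only wells. The readings were taken after 10 minutes at room temperature, following five days of continuous exposure to inhibitors at 0.5, 1, 5, 10, 50, 100, 500 and 1000 nM that began 24 hours after log-phase tumour cell lines were seeded at 250–500 cells per well in 384-well plates. Every line was screened three times and kept only if replicate Pearson r >0.7 and median Z' >0.3.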

VORINOSTAT = compound: O=C(CCCCCCC(=O)Nc1ccccc1)NO [VORINOSTAT]; assay: as above; settings: exposure time: 5 days
Procedure, shortened: as §1

Row | Test System | surviving fraction ([1]; 0.5 nM) | surviving fraction ([1]; 1 nM) | surviving fraction ([1]; 5 nM) | surviving fraction ([1]; 10 nM) | surviving fraction ([1]; 50 nM) | surviving fraction ([1]; 100 nM) | surviving fraction ([1]; 500 nM) | surviving fraction ([1]; 1000 nM) | surviving fraction (VORINOSTAT; 0.5 nM) | surviving fraction (VORINOSTAT; 1 nM) | surviving fraction (VORINOSTAT; 5 nM) | surviving fraction (VORINOSTAT; 10 nM) | surviving fraction (VORINOSTAT; 50 nM) | surviving fraction (VORINOSTAT; 100 nM) | surviving fraction (VORINOSTAT; 500 nM) | surviving fraction (VORINOSTAT; 1000 nM)
1 | HCC1395 BREAST | 0.864 ± 0.096 | 0.956 ± 0.025 | 0.998 ± 0.076 | 1.03 ± 0.029 | 0.883 ± 0.21 | 0.846 ± 0.13 | 0.766 ± 0.1 | 0.581 ± 0.15 | 1.1 ± 0.23 | 1.05 ± 0.16 | 1.31 ± 0.066 | 1.11 ± 0.11 | 1.25 ± 0.11 | 1.21 ± 0.042 | 1.03 ± 0.11 | 0.94 ± 0.1
2 | HCC1806 BREAST | 1.08 ± 0.14 | 1.1 ± 0.042 | 1.12 ± 0.18 | 1.05 ± 0.094 | 0.993 ± 0.059 | 0.754 ± 0.1 | 0.366 ± 0.037 | 0.215 ± 0.0097 | 1.13 ± 0.16 | 0.721 ± 0.61 | 0.825 ± 0.54 | 0.77 ± 0.64 | 1.18 ± 0.051 | 1.24 ± 0.16 | 0.852 ± 0.073 | 0.527 ± 0.089
3 | HCC1954 BREAST | 0.993 ± 0.024 | 0.945 ± 0.056 | 1.153 ± 0.0064 | 1.03 ± 0.044 | 0.487 ± 0.08 | 0.322 ± 0.047 | 0.0592 ± 0.0095 | 0.0478 ± 0.0011 | 0.802 ± 0.19 | 0.823 ± 0.26 | 1.07 ± 0.36 | 1.18 ± 0.13 | 1.345 ± 0.0064 | 1.37 ± 0.21 | 0.839 ± 0.022 | 0.42875 ± 0.00035
4 | HCT15 LARGE INTESTINE | 0.981 ± 0.029 | 1.04 ± 0.051 | 1.01 ± 0.016 | 0.975 ± 0.021 | 0.76 ± 0.016 | 0.543 ± 0.04 | 0.16 ± 0.013 | 0.091 ± 0.0046 | 0.9863 ± 0.0055 | 0.938 ± 0.023 | 0.963 ± 0.044 | 0.867 ± 0.067 | 1.05 ± 0.028 | 1.06 ± 0.03 | 0.98 ± 0.019 | 0.674 ± 0.056
5 | HELA CERVIX | 0.998 ± 0.04 | 0.989 ± 0.088 | 1.02 ± 0.042 | 1.02 ± 0.035 | 1.11 ± 0.039 | 1.06 ± 0.052 | 0.4 ± 0.019 | 0.318 ± 0.017 | 0.955 ± 0.049 | 0.942 ± 0.066 | 0.972 ± 0.042 | 0.939 ± 0.07 | 1.07 ± 0.057 | 1.06 ± 0.064 | 1.11 ± 0.037 | 1.01 ± 0.092
6 | HOS BONE | 0.992 ± 0.0078 | 0.983 ± 0.019 | 0.986 ± 0.012 | 0.906 ± 0.014 | 0.781 ± 0.021 | 0.618 ± 0.016 | 0.231 ± 0.012 | 0.178 ± 0.0092 | 0.957 ± 0.017 | 1 ± 0.022 | 0.9643 ± 0.0076 | 0.989 ± 0.017 | 1.05 ± 0.019 | 1.07 ± 0.029 | 0.948 ± 0.034 | 0.967 ± 0.021
7 | HOSMNG BONE | 1.03 ± 0.058 | 1.01 ± 0.087 | 1.04 ± 0.037 | 0.947 ± 0.034 | 0.944 ± 0.082 | 0.81 ± 0.033 | 0.348 ± 0.0079 | 0.186 ± 0.0096 | 0.994 ± 0.12 | 0.94 ± 0.091 | 0.996 ± 0.17 | 1.06 ± 0.064 | 0.999 ± 0.048 | 1.09 ± 0.063 | 1.06 ± 0.023 | 1.09 ± 0.02
8 | HSSYII SYNOVIAL | 0.926 ± 0.034 | 0.941 ± 0.07 | 0.821 ± 0.045 | 0.789 ± 0.036 | 0.502 ± 0.006 | 0.329 ± 0.014 | 0.12 ± 0.0097 | 0.093 ± 0.0052 | 0.913 ± 0.023 | 0.87 ± 0.025 | 0.927 ± 0.044 | 0.873 ± 0.016 | 1.06 ± 0.25 | 0.858 ± 0.066 | 0.436 ± 0.012 | 0.201 ± 0.011
9 | HT1080 SOFT TISSUE | 1.02 ± 0.038 | 0.974 ± 0.029 | 1.001 ± 0.0067 | 0.955 ± 0.1 | 0.829 ± 0.012 | 0.661 ± 0.031 | 0.255 ± 0.015 | 0.161 ± 0.0072 | 1.02 ± 0.046 | 1.02 ± 0.015 | 1.05 ± 0.039 | 1.02 ± 0.034 | 0.951 ± 0.028 | 0.914 ± 0.017 | 0.671 ± 0.048 | 0.418 ± 0.029
10 | HU09 BONE | 0.936 ± 0.058 | 0.941 ± 0.057 | 0.779 ± 0.044 | 0.793 ± 0.078 | 0.346 ± 0.042 | 0.168 ± 0.015 | 0.0383 ± 0.0015 | 0.0237 ± 0.0015 | 0.943 ± 0.054 | 0.922 ± 0.041 | 0.931 ± 0.095 | 0.969 ± 0.053 | 1.01 ± 0.092 | 0.968 ± 0.13 | 0.721 ± 0.072 | 0.4 ± 0.013
